From US8202879B2, “Quinazoline derivatives having tyrosine kinase inhibitory activity” (Shionogi & Co., Ltd., priority 2005, dated 2012)
Like-named read-outs stand apart in the source and are kept apart here.

Legend:
[1] = molecular target: T1, EGFR (Homo sapiens, UniProt P00533); assay: Enzyme inhibitory activity on EGFR (time resolution fluorescence, biotinylated poly-Glu-Tyr substrate); assay type: biochemical
T1 construct: purchased Carna Biosciences, Inc; host or cells: insect cell expression system
T1 sequence (P00533 25-1210): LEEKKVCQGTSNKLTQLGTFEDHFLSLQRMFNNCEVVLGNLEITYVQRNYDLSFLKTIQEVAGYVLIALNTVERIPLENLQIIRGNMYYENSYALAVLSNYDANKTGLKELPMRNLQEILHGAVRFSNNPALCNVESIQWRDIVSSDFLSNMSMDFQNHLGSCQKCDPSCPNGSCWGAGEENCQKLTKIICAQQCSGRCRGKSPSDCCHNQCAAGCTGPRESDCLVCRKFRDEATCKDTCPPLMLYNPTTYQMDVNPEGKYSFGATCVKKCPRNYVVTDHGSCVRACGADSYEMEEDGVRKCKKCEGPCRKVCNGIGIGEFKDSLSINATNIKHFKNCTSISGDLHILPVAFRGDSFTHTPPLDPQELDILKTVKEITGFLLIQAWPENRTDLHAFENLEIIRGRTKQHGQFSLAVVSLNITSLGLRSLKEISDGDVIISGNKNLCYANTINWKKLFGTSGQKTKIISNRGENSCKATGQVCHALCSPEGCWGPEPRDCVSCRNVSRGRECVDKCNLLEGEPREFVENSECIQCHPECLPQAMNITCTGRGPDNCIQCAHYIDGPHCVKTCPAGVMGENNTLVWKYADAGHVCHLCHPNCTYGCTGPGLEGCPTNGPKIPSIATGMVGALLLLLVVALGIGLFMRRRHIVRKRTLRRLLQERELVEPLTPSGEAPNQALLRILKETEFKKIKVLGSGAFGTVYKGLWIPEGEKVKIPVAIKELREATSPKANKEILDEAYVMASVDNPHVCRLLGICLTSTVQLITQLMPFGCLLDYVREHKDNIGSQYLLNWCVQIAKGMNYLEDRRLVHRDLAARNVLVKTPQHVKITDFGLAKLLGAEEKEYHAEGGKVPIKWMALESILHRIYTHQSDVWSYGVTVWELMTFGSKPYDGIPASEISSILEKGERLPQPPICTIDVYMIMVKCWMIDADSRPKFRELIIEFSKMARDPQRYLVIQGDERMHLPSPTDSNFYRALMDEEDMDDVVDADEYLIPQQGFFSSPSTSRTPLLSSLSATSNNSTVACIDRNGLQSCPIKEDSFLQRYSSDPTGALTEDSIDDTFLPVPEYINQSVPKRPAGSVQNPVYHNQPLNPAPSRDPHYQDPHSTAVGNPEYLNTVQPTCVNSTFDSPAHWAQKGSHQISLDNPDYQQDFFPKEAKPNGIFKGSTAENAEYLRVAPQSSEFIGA
Description: (§1) Enzyme Inhibitory Activity of Test Compound on EGFR and HER2
(§2) EGFR and HER2 purified from an insect cell expression system, and a biotinylated substrate (synthetic peptide of glutamic acid:tyrosine=4:1) were added to a 384-well plate with ATP added thereto, and an enzyme reaction was performed at room temperature. After completion of the enzyme reaction, an anti-phosphorylated tyrosine antibody labeled with europium and streptavidin labeled with alphycocyanine were added, and a phosphorylated tyrosine residue was quantified by a time resolution fluorescence method.
(§3) A test compound was adjusted to 10 mM using DMSO.
(§4) Further, using 10% DMSO solution, a 1 mM solution was prepared, and this was regarded as a maximum concentration point.
(§5) As a dilution series, a 4-fold dilution series was prepared to a 10 stage.
(§6) As a buffer, TBS containing 10 mM MgCl2, 5 mM MnCl2, 0.2 mM Na3VO4, and 0.1% BSA was used.
(§7) As EGFR and HER2 enzymes, those purified from an insect cell expression system were purchased from Carna Biosciences, Inc.
An EGFR enzyme solution was adjusted to 250 ng/ml using a buffer.
(§8) As a substrate, biotinylated poly-Glu-Tyr (4:1, manufactured by CISbio) was used. A concentration was adjusted to 3.125 μg/ml using the above buffer.
An ATP concentration on study of the EGFR enzyme was adjusted to 125 μM using the buffer.
(§9) For preparing a detection reagent, TBS containing 30 mM EDTA, 0.8M KF and 0.1% BSA was used.
(§10) An anti-phosphorylated tyrosine antibody labeled with europium, PT-66K (CISbio) was adjusted to 195 ng/ml, and streptavidin labeled with alphycocyanine, SA-XL (CISbio) was adjusted to 5 μg/ml.
(§11) As an assay plate, a 384-well plate was used. Per one well, 1.1 μl of a test compound, 4 μl of a substrate solution, and 4 μl of an enzyme solution were added, and 2 μl of an ATP solution was added to initiate an enzyme reaction. The enzyme reaction was performed at room temperature for 60 minutes, and 10 μl of a detection reagent was added to complete the reaction. One hour after completion of the reaction, time resolution fluorescent measurement was performed.

[2] = molecular target: T2, HER2 (Homo sapiens, UniProt P04626); assay: Enzyme inhibitory activity on HER2 (time resolution fluorescence, biotinylated poly-Glu-Tyr substrate); assay type: biochemical
T2 construct: purchased Carna Biosciences, Inc; host or cells: insect cell expression system
T2 sequence (P04626 23-1255): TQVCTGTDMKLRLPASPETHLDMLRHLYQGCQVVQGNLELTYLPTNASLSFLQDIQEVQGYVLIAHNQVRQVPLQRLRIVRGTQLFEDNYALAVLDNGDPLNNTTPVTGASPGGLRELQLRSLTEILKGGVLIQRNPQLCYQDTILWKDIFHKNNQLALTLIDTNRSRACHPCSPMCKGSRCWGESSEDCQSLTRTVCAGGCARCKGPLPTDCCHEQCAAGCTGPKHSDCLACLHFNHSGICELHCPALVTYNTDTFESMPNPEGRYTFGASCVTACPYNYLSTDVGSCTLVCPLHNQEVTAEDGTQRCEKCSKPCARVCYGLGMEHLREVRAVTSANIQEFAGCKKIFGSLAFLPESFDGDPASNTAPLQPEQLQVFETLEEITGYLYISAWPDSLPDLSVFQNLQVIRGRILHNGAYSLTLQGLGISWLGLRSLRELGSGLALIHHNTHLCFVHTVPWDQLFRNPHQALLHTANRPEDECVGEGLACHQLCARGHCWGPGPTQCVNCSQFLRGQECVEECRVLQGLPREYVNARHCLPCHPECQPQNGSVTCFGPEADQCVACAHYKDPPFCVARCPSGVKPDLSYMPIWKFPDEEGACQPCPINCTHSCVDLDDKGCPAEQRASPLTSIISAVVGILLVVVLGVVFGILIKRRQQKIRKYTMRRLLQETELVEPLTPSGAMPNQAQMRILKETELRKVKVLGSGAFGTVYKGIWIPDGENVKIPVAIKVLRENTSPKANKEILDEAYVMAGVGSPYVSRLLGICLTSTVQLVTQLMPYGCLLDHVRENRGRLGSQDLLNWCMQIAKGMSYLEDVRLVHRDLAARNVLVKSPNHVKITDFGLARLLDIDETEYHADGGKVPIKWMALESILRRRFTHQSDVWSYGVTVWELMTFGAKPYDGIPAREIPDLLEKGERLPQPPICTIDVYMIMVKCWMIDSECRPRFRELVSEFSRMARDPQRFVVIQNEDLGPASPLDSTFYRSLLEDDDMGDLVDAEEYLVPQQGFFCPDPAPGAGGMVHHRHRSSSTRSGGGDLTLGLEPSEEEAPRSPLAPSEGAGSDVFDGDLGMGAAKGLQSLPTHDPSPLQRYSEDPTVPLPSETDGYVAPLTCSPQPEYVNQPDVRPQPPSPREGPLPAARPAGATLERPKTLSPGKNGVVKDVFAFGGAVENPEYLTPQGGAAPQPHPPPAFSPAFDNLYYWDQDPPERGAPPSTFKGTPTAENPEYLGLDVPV
Description: as §1, §2, §3, §4, §5, §6, §7
HER2 kinase was adjusted to 1000 ng/ml using a buffer.
as §8
An ATP concentration on study of the HER2 enzyme was adjusted to 290 μM.
as §9, §10, §11

[3] = system: BT-474; assay: In vitro cell proliferation inhibition, WST assay; assay type: cell-based, human; conditions: BT-474 cells, cultured for 3 days, read-out: BT-474 (nM) proliferation inhibitory activity (IC50 value)
Description: Test of In Vitro Cell Proliferation Inhibition of Test Compound
As a human-derived cancer cell strain, BT-474 was used. Cells were all cultured in a 37° C., 5% CO2 incubator in a medium in which 10% bovine fetal serum (ICN) and 50 units ml penicillin/60 μg/ml streptomycin solution (GIBCO) were added to Dulbecco's Modified Essential Medium (DMEM, Nacalai Tesque, Inc).

[4] = enzyme reaction at room temperature for 60 minutes
[5] = EGFR purified from insect cell expression system, ATP solution 125 μM, room temperature, 60 minutes
[6] = HER2 purified from insect cell expression system, ATP solution 290 μM, room temperature, 60 minutes

Structure (SMILES) | IC50 [1, 4] [nM] | IC50 [2, 4] [nM] | IC50 ([3]; Homo sapiens, BT-474, 72 h) [nM] | IC50 [1, 5] [nM] | IC50 [2, 6] [nM] | IC50 [3] [nM]
CC#C/C(=N\OCCNC)c1ccc2ncnc(Nc3ccc(COc4cccc(F)c4)c(Cl)c3)c2c1 [VIII-211] | 23 | 18 | 16 | – | – | –
CC#C/C(=N\OCCNCCNS(C)(=O)=O)c1ccc2ncnc(Nc3ccc(OCc4cccc(F)c4)c(Cl)c3)c2c1 [VIII-51] | – | – | 9 | 45 | 64 | –
CC#C/C(=N\OCCN1CC[C@@H](OC(N)=O)C1)c1ccc2ncnc(Nc3ccc(OCc4cccc(F)c4)c(Cl)c3)c2c1 [VIII-71] | – | – | 17 | 130 | 199 | –
CC#C/C(=N\OC[C@@H]1CCCN1CC#N)c1ccc2ncnc(Nc3ccc(OCc4cccc(F)c4)c(Cl)c3)c2c1 [VIII-73] | – | – | – | 275 | 199 | 12
CC#C/C(=N\OC[C@@H]1C[C@@H](O)CN1)c1ccc2ncnc(Nc3ccc(OCc4cccc(F)c4)c(Cl)c3)c2c1 [VIII-81] | – | – | 8 | 9.8 | 17.7 | –
CC#CC(=NOCCN1CCC(NC(C)=O)C1)c1ccc2ncnc(Nc3ccc(OCc4cccc(F)c4)c(Cl)c3)c2c1 (stereo not shown) [VIII-70] | – | – | – | 63 | 31 | 7
CC#C/C(=N\OCCNCCO)c1ccc2ncnc(Nc3ccc(OCc4ccccn4)c(Cl)c3)c2c1 [VIII-143] | 3.5 | 3.6 | 24 | – | – | –
CC#C/C(=N\OCCNCCNC(C)=O)c1ccc2ncnc(Nc3ccc(OCc4ccccn4)c(Cl)c3)c2c1 [VIII-134] | 7.1 | 7.4 | 14 | – | – | –
C=CC(=O)N1CCN(CCON=Cc2ccc3ncnc(Nc4ccc(OCc5cccc(F)c5)c(Cl)c4)c3c2)CC1 [Compound V-43, 4-(3-chloro-4-(3-fluorobenzyloxy)phenylamino)-6-(2-(4-acryloyl-1-piperazin-1-yl)ethoxyimino)methylquinazoline] | – | – | 71 | 186 | 151 | –
CC#CC(=NOCC1CNCCN1)c1ccc2ncnc(Nc3ccc4c(cnn4Cc4cccc(F)c4)c3)c2c1 (stereo not shown) [VIII-198] | 3.6 | 4.6 | 10 | – | – | –
OCC#C/C(=N\OCCN1CCCC1)c1ccc2ncnc(Nc3ccc(OCc4cccc(F)c4)c(Cl)c3)c2c1 [VIII-122] | – | – | 14 | 29 | 24 | –
CC#C/C(=N\OCCNC1CCN(C(C)=O)CC1)c1ccc2ncnc(Nc3ccc(OCc4cccc(F)c4)c(Cl)c3)c2c1 [VIII-61] | – | – | – | 30 | 24 | 11
CC#C/C(=N\OC[C@@H]1CCCN1)c1ccc2ncnc(Nc3ccc(OCc4cccc(F)c4)c(Cl)c3)c2c1 [VIII-72] | – | – | – | 6.3 | 11 | 21
CC#C/C(=N\OC[C@H]1CNC[C@H](C)O1)c1ccc2ncnc(Nc3ccc(OCc4ccccn4)c(Cl)c3)c2c1 [VIII-178] | 8.1 | 8.2 | 36 | – | – | –
CC#C/C(=N\OC[C@H]1NC(=O)O[C@@H]1C)c1ccc2ncnc(Nc3ccc(OCc4cccc(F)c4)c(Cl)c3)c2c1 [VIII-76] | – | – | 12 | 162 | 216 | –
CC#C/C(=N\OCCNC)c1ccc2ncnc(Nc3ccc(Sc4ccccc4)cc3)c2c1 [VIII-213] | 18 | 25 | 33 | – | – | –
CC#CC(=NOCC1CCC(=O)N1)c1ccc2ncnc(Nc3ccc(OCc4cccc(F)c4)c(Cl)c3)c2c1 (stereo not shown) [VIII-78] | – | – | – | 111 | 410 | 35
CC#C/C(=N\OC[C@@H]1CCCN1CCOC)c1ccc2ncnc(Nc3ccc(OCc4cccc(F)c4)c(Cl)c3)c2c1 [VIII-74] | – | – | 28 | 164 | 150 | –
CC#C/C(=N\OCCNC)c1ccc2ncnc(Nc3ccc(OCc4ccccn4)c(Cl)c3)c2c1 [VIII-182] | 4.7 | 7.3 | 20 | – | – | –
CC#C/C(=N\OCCNC1CC1)c1ccc2ncnc(Nc3ccc(OCc4ccccn4)c(Cl)c3)c2c1 [VIII-136] | 21 | 21 | 53 | – | – | –
CC#C/C(=N\OC1CNC1)c1ccc2ncnc(Nc3ccc(OCc4cccc(F)c4)c(Cl)c3)c2c1 [VIII-68] | – | – | – | 19 | 25 | 41

Structure (SMILES) | IC50 [1, 4] [nM] | IC50 [2, 4] [nM] | IC50 ([3]; Homo sapiens, BT-474, 72 h) [nM] | IC50 [1, 5] [nM] | IC50 [2, 6] [nM] | IC50 [3] [nM]
CC#C/C(=N\OCCNC[C@H](C)CO)c1ccc2ncnc(Nc3ccc(OCc4cccc(F)c4)c(Cl)c3)c2c1 [VIII-63] | – | – | 13 | 9.6 | 9.2 | –
CS(=O)(=O)CCNCCON=C(c1ccccc1)c1ccc2ncnc(Nc3ccc(OCc4cccc(F)c4)c(Cl)c3)c2c1 [VIII-29] | – | – | 77 | 102 | 513 | –
CC#C/C(=N\OCCNC(C)COC)c1ccc2ncnc(Nc3ccc(OCc4cccc(F)c4)c(Cl)c3)c2c1 (stereo not shown) [VIII-44] | – | – | – | 26 | 6.3 | 28
CC#C/C(=N\OC[C@H]1CNCC(=O)N1)c1ccc2ncnc(Nc3ccc(OCc4ccccn4)c(Cl)c3)c2c1 [VIII-171] | 9.9 | 11.7 | 52 | – | – | –
CC#C/C(=N\OC[C@H]1COCCN1)c1ccc2ncnc(Nc3ccc(OCc4ccccn4)c(Cl)c3)c2c1 [VIII-167] | 4.8 | 4.2 | 21 | – | – | –
CC#C/C(=N\OC[C@@H]1C[C@H](O)CN1)c1ccc2ncnc(Nc3ccc(OCc4cccc(F)c4)c(Cl)c3)c2c1 [VIII-82] | – | – | – | 7.6 | 7.5 | 16
CC#C/C(=N\OCC(=O)NCCOS(C)(=O)=O)c1ccc2ncnc(Nc3ccc(OCc4cccc(F)c4)c(Cl)c3)c2c1 [VIII-225] | 47 | 70 | 7 | – | – | –
CC#C/C(=N\OC[C@H]1CCCN1)c1ccc2ncnc(Nc3ccc(OCc4ccccn4)c(Cl)c3)c2c1 [VIII-157] | 4.1 | 4 | 25 | – | – | –
CC#C/C(=N\OC[C@@H]1CCCN1CCO)c1ccc2ncnc(Nc3ccc(OCc4ccccn4)c(Cl)c3)c2c1 [VIII-160] | 17 | 18 | 47 | – | – | –
CC#C/C(=N\OCCNC[C@@H]1CCCO1)c1ccc2ncnc(Nc3ccc(OCc4ccccn4)c(Cl)c3)c2c1 [VIII-137] | 13 | 14 | 78 | – | – | –
CC#C/C(=N\OC[C@H]1CNCCO1)c1ccc2ncnc(Nc3ccc(OCc4cccc(F)c4)c(Cl)c3)c2c1 [VIII-114] | – | – | – | 57 | 69 | 37
CC#C/C(=N\O[C@@H]1CN[C@H](CO)C1)c1ccc2ncnc(Nc3ccc(OCc4ccccn4)c(Cl)c3)c2c1 [VIII-155] | 10 | 8 | 28 | – | – | –
CC#C/C(=N\OC[C@H]1CCCN1CC(=O)OC)c1ccc2ncnc(Nc3ccc(OCc4cccc(F)c4)c(Cl)c3)c2c1 [VIII-87] | – | – | – | 642 | 476 | 6
CC#C/C(=N\OCCN(C)CCOC)c1ccc2ncnc(Nc3ccc(OCc4cccc(F)c4)c(Cl)c3)c2c1 [VIII-64] | – | – | 22 | 52 | – | –
Fc1cccc(COc2ccc(Nc3ncnc4ccc(/C=N/N5CCCCC5)cc34)cc2Cl)c1 [IX-4] | 193 | 334 | – | – | – | –
CN(/N=C/c1ccc2ncnc(Nc3ccc(OCc4cccc(F)c4)c(Cl)c3)c2c1)c1ccccc1 [IX-8] | 426 | 549 | – | – | – | –
CC#C/C(=N\OC[C@@H]1C[C@H](O)CN1)c1ccc2ncnc(Nc3ccc4c(cnn4Cc4cccc(F)c4)c3)c2c1 [VIII-200] | – | – | – | – | – | 8
Fc1cccc(COc2ccc(Nc3ncnc4ccc(C=NN5CCCC5)cc34)cc2Cl)c1 [IX-1, 4-(3-chloro-4-(3-fluorobenzyloxy)phenylamino)-6-(pyrrolidin-1-yliminomethyl)quinazoline] | 138 | 203 | – | – | – | –
CC/C(=N\OCCNCCS(C)(=O)=O)c1ccc2ncnc(Nc3ccc(OCc4cccc(F)c4)c(Cl)c3)c2c1 [VIII-19] | – | – | – | 89 | 115 | –
COC[C@@H]1CCCN1/N=C/c1ccc2ncnc(Nc3ccc(OCc4cccc(F)c4)c(Cl)c3)c2c1 [IX-6] | 344 | 326 | – | – | – | –
